# Data: PubChem BioAssay AID1918991 (Molecular Pharmacology Branch, DTP, NCI, 2023)
# Values joined by “and” are separate entries in the source; they are usually repeats but may differ in a detail not shown here. Equal values may be shown once.
# Test system: 186277-243-T-J2-PDC complex spheroid growth
# Assay: Anticancer human tumor 186277-243-T-J2-PDC patient-derived colon adenocarcinoma cell line growth inhibition [AhR]
# Conditions: for viability, T/C: stronger effect = lower value
# Source text: Multicellular complex tumor spheroid response to aryl hydrocarbon receptor antagonists in combination with a variety of drugs and investigational agents in selected tumor cell lines
# The current study was undertaken to assess response to aryl hydrocarbon receptor antagonists in combination with standard-of-care drugs and investigational agents in solid tumor complex spheroid models. Complex spheroids include a stromal component modeled by human endothelial cells (HUVEC) and fibroblasts modeled by human mesenchymal stem cells (MSCs). The concentration ranges selected for each drug and investigational agent were based upon clinically achievable concentrations if the clinical Cmax of the agent was known.
# Compounds. The drugs and investigational agents: BAY 2416964 (NSC825713), GNF351 (NSC835774), CH-223191 (NSC835775), CPI-455 (NSC825282), aza-TdCyd (NSC777586), decitabine (NSC127716), belinostat (NSC758774), entinostat (NSC756642), pevonedistat (NSC761192), tazemetostat (NSC777109), talazoparib (NSC765396), olaparib (NSC753686), selinexor (NSC780203), nedisertib (M3814, NSC802822), bortezomib (NSC756655), venetoclax (NSC766270), doxorubicin (NSC123127), elimusertib (BAY189344, NSC800525), ceralasertib (AZD6738, NSC777638), TAK-243 (NSC785004), alisertib (NSC759677), etoposide (NSC141540), topotecan (NSC609699), eribulin (NSC707389), gemcitabine (NSC613327), carboplatin (NSC241240), cisplatin (NSC119875), and SN-38 (NSC673596) were obtained from the National Cancer Institute (NCI) Developmental Therapeutics Program Chemical Repository (32). The FDA-approved anticancer drug set is available from the Developmental Therapeutics Program at https://dtp.cancer.gov/organization/dscb/obtaining/available plates.htm. […] The stock solutions were prepared in dimethyl sulfoxide (DMSO, Sigma-Aldrich, St. Louis, MO, cat. D2650), except for the platinum compounds which were prepared in saline (Quality Biological, Gaithersburg, MD, cat. 114-055-101), at 800-fold the tested concentration and stored at -70 degrees C prior to their use. All drugs and investigational agents were tested over a range starting from a high concentration at or near the clinical Cmax and decreasing in half-log increments. If the clinical Cmax for an agent had not been determined, the highest concentration tested was 10 microM (Table 1).
# Cell Culture. All cells were maintained in an incubator at 37 degrees C and 5% CO2 with 95% humidity. The PDC lines were cultured according to standard operating procedures established by the NCI PDMR (https://pdmr.cancer.gov). Briefly, all PDCs were thawed and cultured in Matrigel-coated flasks prepared with a working solution of 1X Ham's F-12 nutrient mix, without supplementation (Invitrogen, Waltham, MA, cat. 11765054), 100 U/mL penicillin-streptomycin (Invitrogen, cat. 15140122), and 2.5% Matrigel (Corning Inc., Corning, NY, cat. 354248) for the first three passages. All PDCs were cultured in complete DMEM/F-12 media containing advanced DMEM/F-12 (Invitrogen, cat. 12634028), 4.9% defined fetal bovine serum, heat inactivated (HyClone Laboratories Inc., Logan, UT, cat. SH30070.03HI), 389 ng/mL hydrocortisone (Sigma-Aldrich, cat. H4001), 9.7 ng/mL human EGF recombinant protein (Invitrogen, cat. PHG0313), 23.4 microg/mL adenine (Sigma-Aldrich, cat. A2786), 97.3 U/mL penicillin-streptomycin (Invitrogen, cat. 15140122), 1.9 mM L-glutamine (Invitrogen, cat. 25030081), and 9.7 microM Y-27632 dihydrochloride (Tocris Bioscience, Bristol, United Kingdom, cat. 1254). The PDCs were cultured in complete DMEM/F12 media without 10 microM Y-27632 dihydrochloride for at least two passages prior to the screen. The established cell lines NCI-H1341 and […] were cultured in DMEM/F-12, HEPES (Invitrogen, cat. 11330032), 5% defined fetal bovine serum (HyClone Laboratories Inc., cat. SH30070.03), ITS premix universal culture supplement [insulin (5 microg/mL), transferrin (5 microg/mL), and selenious acid (5 ng/mL)] […]
# [1] = curve of first compound, second compound 0.1 µM
# [2] = curve of first compound, second compound 0.316 µM
# [3] = curve of first compound, second compound 1 µM
# [4] = curve of first compound, second compound 3.16 µM
# [5] = curve of first compound, second compound 10 µM
# 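Note: spheroids exposed to compounds for seven days before the viability read.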
# 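Throughout, for viability, T/C: luminescent signal used as a stand-in for viable cell amount; 100% = DMSO vehicle control wells.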
compound,measurement,setting,value
COc1cc(C2c3cc4c(cc3C(OC3OC5COC(C)OC5C(O)C3O)C3COC(=O)C23)OCO4)cc(OC)c1O (centres undefined) + CC(CO)NC(=O)c1cc(-c2ccc(Cl)cc2)nn(-c2cnn(C)c2)c1=O,IC50,[1],279 nM
same,IC50,[2],281 nM
same,IC50,[3],260 nM
same,IC50,[4],197 nM
same,IC50,[5],81.6 nM
same,"viability, T/C","second compound 0.1 µM, first compound 0.0316 µM",102%
same,"viability, T/C","second compound 0.1 µM, first compound 0.1 µM",83.9%
same,"viability, T/C","second compound 0.1 µM, first compound 0.316 µM",45.4%
same,"viability, T/C","second compound 0.1 µM, first compound 1 µM",20.3%
same,"viability, T/C","second compound 0.1 µM, first compound 3.16 µM",15.5%
same,"viability, T/C","second compound 0.1 µM, first compound 10 µM",8.93%
same,"viability, T/C","second compound 0.316 µM, first compound 0.0316 µM",92.8%
same,"viability, T/C","second compound 0.316 µM, first compound 0.1 µM",90.6%
same,"viability, T/C","second compound 0.316 µM, first compound 0.316 µM",45%
same,"viability, T/C","second compound 0.316 µM, first compound 1 µM",17.8%
same,"viability, T/C","second compound 0.316 µM, first compound 3.16 µM",17.6%
same,"viability, T/C","second compound 0.316 µM, first compound 10 µM",8.41%
same,"viability, T/C","second compound 1 µM, first compound 0.0316 µM",89.2%
same,"viability, T/C","second compound 1 µM, first compound 0.1 µM",80.2%
same,"viability, T/C","second compound 1 µM, first compound 0.316 µM",42.6%
same,"viability, T/C","second compound 1 µM, first compound 1 µM",20.7%
same,"viability, T/C","second compound 1 µM, first compound 3.16 µM",16.4%
same,"viability, T/C","second compound 1 µM, first compound 10 µM",8.47%
same,"viability, T/C","second compound 3.16 µM, first compound 0.0316 µM",84.5%
same,"viability, T/C","second compound 3.16 µM, first compound 0.1 µM",71.6%
same,"viability, T/C","second compound 3.16 µM, first compound 0.316 µM",33.7%
same,"viability, T/C","second compound 3.16 µM, first compound 1 µM",20.2%
same,"viability, T/C","second compound 3.16 µM, first compound 3.16 µM",14.5%
same,"viability, T/C","second compound 3.16 µM, first compound 10 µM",7.04%
same,"viability, T/C","second compound 10 µM, first compound 0.0316 µM",68.3%
same,"viability, T/C","second compound 10 µM, first compound 0.1 µM",47.4%
same,"viability, T/C","second compound 10 µM, first compound 0.316 µM",25.2%
same,"viability, T/C","second compound 10 µM, first compound 1 µM",19.2%
same,"viability, T/C","second compound 10 µM, first compound 3.16 µM",10.4%
same,"viability, T/C","second compound 10 µM, first compound 10 µM",6.47%
CCc1c2c(nc3ccc(O)cc13)-c1cc3c(c(=O)n1C2)COC(=O)[C@]3(O)CC,"viability, T/C",compound 0.000949 µM,118% and 125% and 49.3%
same,"viability, T/C",compound 0.003 µM,111% and 144% and 37.7%
same,"viability, T/C",compound 0.00949 µM,70.2% and 115% and 18.8%
same,"viability, T/C",compound 0.03 µM,49.7% and 83% and 17.6%
same,"viability, T/C",compound 0.0949 µM,29.7% and 43.6% and 10.7%
same,"viability, T/C",compound 0.3 µM,15.3% and 26.9% and 7.34%
CC1COCCN1c1cc(-c2ccnn2C)c2ccnc(-c3ccn[nH]3)c2n1 (centres undefined),"viability, T/C",compound 0.00316 µM,96.9% and 95.5% and 78.2%
same,"viability, T/C",compound 0.01 µM,94.7% and 106% and 89.9%
same,"viability, T/C",compound 0.0316 µM,126% and 103% and 38.2%
same,"viability, T/C",compound 0.316 µM,8.06% and 11.5% and 3.15%
same,"viability, T/C",compound 1 µM,5.02% and 8.23% and 2.74%
same,IC50,curve of compound,80.6 nM and 81.6 nM and 23.5 nM
Nc1ncn(C2CC(O)C(CO)S2)c(=O)n1 (centres undefined) + CC(CO)NC(=O)c1cc(-c2ccc(Cl)cc2)nn(-c2cnn(C)c2)c1=O,IC50,[1],139 nM
same,IC50,[2],118 nM
same,IC50,[3],132 nM
same,IC50,[4],142 nM
same,IC50,[5],118 nM
same,"viability, T/C","second compound 0.1 µM, first compound 0.000949 µM",101%
same,"viability, T/C","second compound 0.1 µM, first compound 0.003 µM",94.8%
same,"viability, T/C","second compound 0.1 µM, first compound 0.00949 µM",93%
same,"viability, T/C","second compound 0.1 µM, first compound 0.03 µM",85.6%
same,"viability, T/C","second compound 0.1 µM, first compound 0.0949 µM",59.6%
same,"viability, T/C","second compound 0.1 µM, first compound 0.3 µM",29.9%
same,"viability, T/C","second compound 0.316 µM, first compound 0.000949 µM",83.6%
same,"viability, T/C","second compound 0.316 µM, first compound 0.003 µM",92.8%
same,"viability, T/C","second compound 0.316 µM, first compound 0.00949 µM",92.8%
same,"viability, T/C","second compound 0.316 µM, first compound 0.03 µM",93.1%
same,"viability, T/C","second compound 0.316 µM, first compound 0.0949 µM",55%
same,"viability, T/C","second compound 0.316 µM, first compound 0.3 µM",29.1%
same,"viability, T/C","second compound 1 µM, first compound 0.000949 µM",102%
same,"viability, T/C","second compound 1 µM, first compound 0.003 µM",100%
same,"viability, T/C","second compound 1 µM, first compound 0.00949 µM",99.4%
same,"viability, T/C","second compound 1 µM, first compound 0.03 µM",94.2%
same,"viability, T/C","second compound 1 µM, first compound 0.0949 µM",56.7%
same,"viability, T/C","second compound 1 µM, first compound 0.3 µM",33.1%
same,"viability, T/C","second compound 3.16 µM, first compound 0.000949 µM",82%
same,"viability, T/C","second compound 3.16 µM, first compound 0.003 µM",93%
same,"viability, T/C","second compound 3.16 µM, first compound 0.00949 µM",92%
same,"viability, T/C","second compound 3.16 µM, first compound 0.03 µM",85%
same,"viability, T/C","second compound 3.16 µM, first compound 0.0949 µM",59.8%
same,"viability, T/C","second compound 3.16 µM, first compound 0.3 µM",32%
same,"viability, T/C","second compound 10 µM, first compound 0.000949 µM",89.1%
same,"viability, T/C","second compound 10 µM, first compound 0.003 µM",75.1%
same,"viability, T/C","second compound 10 µM, first compound 0.00949 µM",89.1%
same,"viability, T/C","second compound 10 µM, first compound 0.03 µM",66.8%
same,"viability, T/C","second compound 10 µM, first compound 0.0949 µM",55.1%
same,"viability, T/C","second compound 10 µM, first compound 0.3 µM",34.2%
CC[C@@]1(O)C(=O)OCc2c1cc1n(c2=O)Cc2cc3c(CN(C)C)c(O)ccc3nc2-1,"viability, T/C",compound 0.000316 µM,100% and 99.5% and 110%
same,"viability, T/C",compound 0.001 µM,94.2% and 104% and 99.4%
same,"viability, T/C",compound 0.00316 µM,104% and 95.7% and 114%
same,"viability, T/C",compound 0.01 µM,118% and 68.7% and 119%
same,"viability, T/C",compound 0.0316 µM,106% and 37% and 119%
same,"viability, T/C",compound 0.1 µM,65.8% and 19.4% and 111%
same,IC50,curve of compound,> 100 nM and 19.6 nM
